Data published in ChEMBL document CHEMBL4382231, “Chemical preparation, biological evaluation and 3D-QSAR of ethoxysulfuron derivatives as novel antifungal agents targeting acetohydroxyacid synthase” (Eur J Med Chem, 2019).
Values after ≈ are worked out from the molar mass of the structure shown.

Assays:
[1] = test system: Candida parapsilosis; assay: Antifungal activity against Candida parapsilosis ATCC 22019 cultured in YNB media after 72 hrs by broth microdilution method; assay type: functional; conditions: Lodderomyces parapsilosis, ATCC 22019, 72 h
[2] = test system: Candida parapsilosis; assay: Antifungal activity against Candida parapsilosis ATCC 22019 cultured in YNB media after 48 hrs by broth microdilution method; assay type: functional; conditions: Lodderomyces parapsilosis, ATCC 22019, 48 h
[3] = test system: Candida parapsilosis; assay: Antifungal activity against Candida parapsilosis ATCC 22019 cultured in YNB media after 24 hrs by broth microdilution method; assay type: functional; conditions: Lodderomyces parapsilosis, ATCC 22019, 24 h
[4] = test system: Saccharomyces cerevisiae; assay: Antifungal activity against Saccharomyces cerevisiae SC XH1549 cultured in YNB media after 24 hrs by broth microdilution method; assay type: functional; conditions: SC XH1549, 24 h
[5] = test system: Saccharomyces cerevisiae; assay: Antifungal activity against Saccharomyces cerevisiae SC XH1549 cultured in YNB media after 72 hrs by broth microdilution method; assay type: functional; conditions: SC XH1549, 72 h
[6] = test system: Saccharomyces cerevisiae; assay: Antifungal activity against Saccharomyces cerevisiae SC XH1549 cultured in YNB media after 48 hrs by broth microdilution method; assay type: functional; conditions: SC XH1549, 48 h
[7] = test system: Candida albicans; assay: Antifungal activity against Candida albicans SC5314 cultured in RPMI 1640 media after 24 hrs by broth microdilution method; assay type: functional; conditions: SC5314, 24 h
[8] = test system: Candida albicans; assay: Antifungal activity against fluconazole-resistant Candida albicans isolate g5 cultured in YNB media after 24 hrs by broth microdilution method; assay type: functional; conditions: isolate g5, 24 h
[9] = Inhibition of Candida albicans AHAS catalytic subunit using pyruvate as substrate measured after 30 mins by colorimetric method
[10] = test system: Candida albicans; assay: Antifungal activity against Candida albicans SC5314 cultured in YNB media after 48 hrs by broth microdilution method; assay type: functional; conditions: SC5314, 48 h
[11] = test system: Candida albicans; assay: Antifungal activity against Candida albicans SC5314 cultured in YNB media after 72 hrs by broth microdilution method; assay type: functional; conditions: SC5314, 72 h
[12] = test system: Candida albicans; assay: Antifungal activity against fluconazole-resistant Candida albicans isolate g5 cultured in YNB media after 48 hrs by broth microdilution method; assay type: functional; conditions: isolate g5, 48 h
[13] = test system: Candida albicans; assay: Antifungal activity against Candida albicans SC5314 cultured in YNB media after 24 hrs by broth microdilution method; assay type: functional; conditions: SC5314, 24 h
[14] = test system: Candida albicans; assay: Antifungal activity against fluconazole-resistant Candida albicans isolate 17 cultured in YNB media after 48 hrs by broth microdilution method; assay type: functional; conditions: isolate 17, 48 h
[15] = test system: Candida albicans; assay: Antifungal activity against fluconazole-resistant Candida albicans isolate g5 cultured in YNB media after 72 hrs by broth microdilution method; assay type: functional; conditions: isolate g5, 72 h
[16] = test system: Candida albicans; assay: Antifungal activity against fluconazole-resistant Candida albicans isolate 17 cultured in YNB media after 24 hrs by broth microdilution method; assay type: functional; conditions: isolate 17, 24 h
[17] = test system: Candida albicans; assay: Antifungal activity against fluconazole-resistant Candida albicans isolate 17 cultured in YNB media after 72 hrs by broth microdilution method; assay type: functional; conditions: isolate 17, 72 h

| SMILES | MIC [7] [µg/mL] | Ki [9] [nM] | MIC [13] [µg/mL] | pKi [9] | further results |
| --- | --- | --- | --- | --- | --- |
| C[C@@H]1[C@H](O)[C@@H](C)/C=C/C=C/C=C/C=C/C=C/C=C/C=C/[C@H](O[C@@H]2O[C@H](C)[C@@H](O)[C@H](N)[C@@H]2O)C[C@@H]2O[C@](O)(C[C@@H](O)C[C@@H](O)[C@H](O)CC[C@@H](O)C[C@@H](O)CC(=O)O[C@H]1C)C[C@H](O)[C@H]2C(=O)O [AMPHOTERICIN B] | 1.56 (≈ 1.69 µM) |  |  |  | MIC [1]: 2.5 µg/mL (≈ 2.71 µM); MIC [2]: 2.5 µg/mL (≈ 2.71 µM); MIC [3]: 2.5 µg/mL (≈ 2.71 µM); MIC [4]: 2.5 µg/mL (≈ 2.71 µM); MIC [5]: 2.5 µg/mL (≈ 2.71 µM); MIC [6]: 2.5 µg/mL (≈ 2.71 µM) |
| CCOC(=O)c1ccccc1OS(=O)(=O)NC(=O)Nc1nc(OC)cc(OC)n1 |  | 6.3 | 1.25 (≈ 2.93 µM) |  | MIC [8]: 2.5 µg/mL (≈ 5.86 µM); MIC [1]: 2.5 µg/mL (≈ 5.86 µM); MIC [10]: 2.5 µg/mL (≈ 5.86 µM); MIC [11]: 2.5 µg/mL (≈ 5.86 µM); MIC [12]: 2.5 µg/mL (≈ 5.86 µM); MIC [2]: 2.5 µg/mL (≈ 5.86 µM); MIC [3]: 1.25 µg/mL (≈ 2.93 µM); MIC [4]: 2.5 µg/mL (≈ 5.86 µM); MIC [14]: 5 µg/mL (≈ 11.7 µM); MIC [15]: 2.5 µg/mL (≈ 5.86 µM); MIC [5]: 5 µg/mL (≈ 11.7 µM); MIC [16]: 2.5 µg/mL (≈ 5.86 µM); MIC [17]: 5 µg/mL (≈ 11.7 µM); MIC [6]: 5 µg/mL (≈ 11.7 µM) |
| COC(=O)c1ccccc1OS(=O)(=O)[N-]C(=O)Nc1nc(I)cc(OC)n1.[Na+] | > 100 | 66 | > 100 | 7.18 |  |
| CCOc1ccccc1OS(=O)(=O)[N-]C(=O)Nc1nc(OC)cc(OC)n1.[Na+] |  | 22.1 | 0.625 |  | MIC [8]: 1.25 µg/mL; MIC [1]: 2.5 µg/mL; MIC [10]: 1.25 µg/mL; MIC [11]: 1.25 µg/mL; MIC [12]: 1.25 µg/mL; MIC [2]: 2.5 µg/mL; MIC [3]: 1.25 µg/mL; MIC [4]: 5 µg/mL; MIC [14]: 2.5 µg/mL; MIC [15]: 2.5 µg/mL; MIC [5]: 5 µg/mL; MIC [16]: 1.25 µg/mL; MIC [17]: 2.5 µg/mL; MIC [6]: 5 µg/mL |
| COc1cc(Cl)nc(NC(=O)[N-]S(=O)(=O)Oc2ccccc2[N+](=O)[O-])n1.[Na+] | > 100 | 265 | > 100 | 6.58 |  |
| COc1cc(I)nc(NC(=O)[N-]S(=O)(=O)Oc2ccccc2C(=O)OCCCl)n1.[Na+] | > 100 | 740 | > 100 | 6.13 |  |
| COC(=O)c1ccccc1OS(=O)(=O)[N-]C(=O)Nc1nc(Br)cc(OC)n1.[Na+] | > 100 | 643 | > 100 | 6.28 |  |
| Cc1cc(Cl)nc(NC(=O)[N-]S(=O)(=O)Oc2ccccc2OCCCl)n1.[Na+] | > 100 | 95 | > 100 | 7.02 |  |
| COc1cc(Cl)nc(NC(=O)[N-]S(=O)(=O)Oc2ccccc2C(=O)OCCI)n1.[Na+] | > 100 | 547 | > 100 | 6.26 |  |
| Cc1cc(C)nc(NC(=O)[N-]S(=O)(=O)Oc2ccccc2C(=O)OCCCl)n1.[Na+] | > 100 | 3360 | > 100 | 5.48 |  |
| CCOC(=O)c1cccc(OS(=O)(=O)[N-]C(=O)Nc2nc(C)cc(OC)n2)c1.[Na+] | > 100 | 1640 | > 100 | 5.78 |  |
| CCOC(=O)c1cccc(OS(=O)(=O)[N-]C(=O)Nc2nc(C)cc(C)n2)c1.[Na+] | > 100 | 36800 | > 100 | 4.44 |  |
| COc1cc(Br)nc(NC(=O)[N-]S(=O)(=O)Oc2ccccc2C(=O)OCCCl)n1.[Na+] | > 100 | 379 | > 100 | 6.41 |  |
| COc1cc(OC)nc(NC(=O)[N-]S(=O)(=O)Oc2ccccc2C(=O)OCC(F)(F)F)n1.[Na+] | > 100 | 78 | 10 | 7.11 |  |
| CCOC(=O)c1ccccc1OS(=O)(=O)[N-]C(=O)Nc1nc(I)cc(OC)n1.[Na+] | 100 | 11.5 | 10 | 7.91 |  |
